Measured values as given in article PMC5362750, “Discovery of Potent, Selective, and Orally Bioavailable Small-Molecule Modulators of the Mediator Complex-Associated Kinases CDK8 and CDK19” (Journal of Medicinal Chemistry, 2016).
Read-outs that look alike come from different tables or passages of the source.

Legend:
CDK9/CYCLINT1 = CDK9/CYCLINT1 (Homo sapiens, UniProt P50750); conditions: 1 µM, ATP at Km
NEK6 = target: T1, NEK6 (Homo sapiens, UniProt Q9HC98); test: Kinase panel (Millipore); format: biochemical; conditions: 1 µM, ATP at Km
T1 construct: purchased Millipore (KinaseProfiler) kinase panel

FGFR2(N549H) = FGFR2(N549H) (Homo sapiens, UniProt P21802, N549H); conditions: 1 µM, ATP at Km
FGFR2(N549H), sequence (P21802 22-821 N549H): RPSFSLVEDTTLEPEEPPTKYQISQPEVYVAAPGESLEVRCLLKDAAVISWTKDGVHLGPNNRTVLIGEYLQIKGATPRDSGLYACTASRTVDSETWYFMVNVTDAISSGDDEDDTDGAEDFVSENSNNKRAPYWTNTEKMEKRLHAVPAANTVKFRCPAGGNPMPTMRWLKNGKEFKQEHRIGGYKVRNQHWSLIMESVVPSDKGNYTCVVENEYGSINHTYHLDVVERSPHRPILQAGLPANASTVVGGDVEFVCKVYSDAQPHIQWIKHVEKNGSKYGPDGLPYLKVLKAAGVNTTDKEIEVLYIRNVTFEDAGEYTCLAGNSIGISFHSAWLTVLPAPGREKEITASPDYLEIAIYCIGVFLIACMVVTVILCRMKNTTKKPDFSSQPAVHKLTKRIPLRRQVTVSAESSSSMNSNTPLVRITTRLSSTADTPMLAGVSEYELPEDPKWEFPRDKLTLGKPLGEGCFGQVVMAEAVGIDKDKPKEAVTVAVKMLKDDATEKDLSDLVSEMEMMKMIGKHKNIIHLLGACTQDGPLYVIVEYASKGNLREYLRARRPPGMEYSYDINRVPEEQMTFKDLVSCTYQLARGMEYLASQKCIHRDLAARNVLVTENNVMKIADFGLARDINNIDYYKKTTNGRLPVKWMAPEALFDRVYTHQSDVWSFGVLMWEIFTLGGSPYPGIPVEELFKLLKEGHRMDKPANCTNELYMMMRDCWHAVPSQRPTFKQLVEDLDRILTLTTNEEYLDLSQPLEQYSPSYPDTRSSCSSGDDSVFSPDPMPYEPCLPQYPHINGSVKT

FAK = FAK (Homo sapiens, UniProt Q05397); test: Kinase panel (Millipore); format: biochemical; conditions: 1 µM, ATP at Km
SGK3 = target: T2, SGK3 (Homo sapiens, UniProt Q96BR1); test: Kinase panel (Millipore); format: biochemical; conditions: 1 µM, ATP at Km
T2 construct: purchased Millipore (KinaseProfiler) kinase panel
T2 sequence (Q96BR1 whole entry): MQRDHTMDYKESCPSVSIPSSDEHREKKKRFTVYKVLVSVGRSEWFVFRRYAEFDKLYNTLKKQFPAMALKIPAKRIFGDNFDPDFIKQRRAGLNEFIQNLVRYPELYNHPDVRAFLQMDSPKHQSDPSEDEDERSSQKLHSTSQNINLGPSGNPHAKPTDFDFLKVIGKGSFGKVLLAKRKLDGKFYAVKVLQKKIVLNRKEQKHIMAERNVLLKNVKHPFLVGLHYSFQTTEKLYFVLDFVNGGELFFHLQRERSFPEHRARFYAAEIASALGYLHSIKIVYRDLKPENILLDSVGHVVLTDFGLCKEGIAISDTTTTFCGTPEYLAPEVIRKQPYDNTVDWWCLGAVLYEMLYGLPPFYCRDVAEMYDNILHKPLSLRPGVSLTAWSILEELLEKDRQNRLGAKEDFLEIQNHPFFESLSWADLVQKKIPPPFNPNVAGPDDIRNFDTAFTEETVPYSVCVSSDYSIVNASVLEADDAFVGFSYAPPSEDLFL

[1] = test system: Ca2+ channel (L, diltiazem site) (benzothiazepines); conditions: 10 µM, antagonist radioligand
IGF-1R, ACTIVATED = target: T3, IGF-1R, ACTIVATED (Homo sapiens, UniProt P08069); test: Kinase panel (Millipore); format: biochemical; conditions: 1 µM, ATP at Km
T3 construct: purchased Millipore (KinaseProfiler) kinase panel

M4 (h) = M4 (h) (Homo sapiens, UniProt P08173); test: biochemical; conditions: read-out: % Inhibition of Control Specific Binding
DDR2 = DDR2 (Homo sapiens, UniProt Q16832); test: Kinase panel (Millipore); format: biochemical; conditions: 1 µM, ATP at Km
P70S6K = target: T4, P70S6K (Homo sapiens, UniProt P23443); test: Kinase panel (Millipore); format: biochemical; conditions: 1 µM, ATP at Km
T4 construct: purchased Millipore (KinaseProfiler) kinase panel
T4 sequence (P23443 whole entry): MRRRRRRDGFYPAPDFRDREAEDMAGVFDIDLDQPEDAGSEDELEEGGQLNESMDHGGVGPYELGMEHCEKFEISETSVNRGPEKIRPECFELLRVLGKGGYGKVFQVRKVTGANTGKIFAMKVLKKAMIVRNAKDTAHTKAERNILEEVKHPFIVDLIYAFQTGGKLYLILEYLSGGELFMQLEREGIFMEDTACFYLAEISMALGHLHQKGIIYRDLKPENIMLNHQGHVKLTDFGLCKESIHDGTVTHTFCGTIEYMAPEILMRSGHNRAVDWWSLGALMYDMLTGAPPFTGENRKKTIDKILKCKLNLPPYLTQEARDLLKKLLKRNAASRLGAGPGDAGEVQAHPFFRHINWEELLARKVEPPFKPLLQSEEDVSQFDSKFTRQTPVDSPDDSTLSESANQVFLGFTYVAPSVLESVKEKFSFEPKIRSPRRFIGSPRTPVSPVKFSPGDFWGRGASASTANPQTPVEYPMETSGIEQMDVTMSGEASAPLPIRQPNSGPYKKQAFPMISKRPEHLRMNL

PKBGAMMA = PKBGAMMA (Homo sapiens, UniProt Q9Y243); test: Kinase panel (Millipore); format: biochemical; conditions: 1 µM, ATP at Km
BMX = target: T5, BMX (Homo sapiens, UniProt P51813); test: Kinase panel (Millipore); format: biochemical; conditions: 1 µM, ATP at Km
T5 construct: purchased Millipore (KinaseProfiler) kinase panel

JAK3 = target: T6, JAK3 (Homo sapiens, UniProt P52333); test: Kinase panel (Millipore); format: biochemical; conditions: 1 µM, ATP at Km
T6 construct: purchased Millipore (KinaseProfiler) kinase panel

5-HT2C (h) = 5-HT2C (h) (Homo sapiens, UniProt P28335); test: biochemical; conditions: read-out: % Inhibition of Control Specific Binding
alpha 1B (h) = alpha 1B (h) (Homo sapiens, UniProt P35368); test: biochemical; conditions: read-out: % Inhibition of Control Specific Binding
[2] = test system: STAT1^SER727 phosphorylation; conditions: 30 mg/kg q.d. oral
EPHA5 = target: T7, EPHA5 (Homo sapiens, UniProt P54756); test: Kinase panel (Millipore); format: biochemical; conditions: 1 µM, ATP at Km
T7 construct: purchased Millipore (KinaseProfiler) kinase panel
T7 sequence (P54756 25-1037): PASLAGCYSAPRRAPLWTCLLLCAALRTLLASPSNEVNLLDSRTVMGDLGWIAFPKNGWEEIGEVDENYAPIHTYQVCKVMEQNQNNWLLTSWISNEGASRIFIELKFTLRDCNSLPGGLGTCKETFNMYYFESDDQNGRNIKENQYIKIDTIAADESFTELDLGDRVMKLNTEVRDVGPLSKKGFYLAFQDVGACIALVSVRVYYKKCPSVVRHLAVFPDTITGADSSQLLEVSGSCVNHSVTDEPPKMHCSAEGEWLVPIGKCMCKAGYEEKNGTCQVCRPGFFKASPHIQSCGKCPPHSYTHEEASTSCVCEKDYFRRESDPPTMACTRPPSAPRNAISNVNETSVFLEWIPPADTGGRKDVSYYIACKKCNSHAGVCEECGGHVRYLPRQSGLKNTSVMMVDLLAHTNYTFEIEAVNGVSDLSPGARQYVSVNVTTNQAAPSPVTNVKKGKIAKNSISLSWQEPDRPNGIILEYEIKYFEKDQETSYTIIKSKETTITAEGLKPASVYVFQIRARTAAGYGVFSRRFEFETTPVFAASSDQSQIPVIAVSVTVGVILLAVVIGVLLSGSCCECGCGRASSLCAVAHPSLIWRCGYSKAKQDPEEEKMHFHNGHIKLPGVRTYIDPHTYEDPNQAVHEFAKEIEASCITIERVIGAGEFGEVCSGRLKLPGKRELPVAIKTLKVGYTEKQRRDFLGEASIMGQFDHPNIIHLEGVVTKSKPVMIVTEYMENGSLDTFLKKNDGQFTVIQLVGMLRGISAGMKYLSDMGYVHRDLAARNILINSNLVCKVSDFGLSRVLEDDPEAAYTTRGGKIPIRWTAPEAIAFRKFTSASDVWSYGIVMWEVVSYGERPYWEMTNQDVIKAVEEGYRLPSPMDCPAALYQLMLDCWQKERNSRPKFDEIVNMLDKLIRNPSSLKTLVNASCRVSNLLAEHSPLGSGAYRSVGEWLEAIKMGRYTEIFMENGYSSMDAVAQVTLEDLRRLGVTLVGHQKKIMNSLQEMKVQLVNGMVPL

PKA = PKA (Homo sapiens, UniProt P17612); test: Kinase panel (Millipore); format: biochemical; conditions: 1 µM, ATP at Km
SAPK4 = SAPK4 (Homo sapiens, UniProt O15264); test: Kinase panel (Millipore); format: biochemical; conditions: 1 µM, ATP at Km
EGFR(T790M,L858R) = EGFR(T790M,L858R) (Homo sapiens, UniProt P00533, L858R/T790M); conditions: 1 µM, ATP at Km
[3] = female, Beagle, dog, in vivo
AXL = target: T8, AXL (Homo sapiens, UniProt P30530); test: Kinase panel (Millipore); format: biochemical; conditions: 1 µM, ATP at Km
T8 construct: purchased Millipore (KinaseProfiler) kinase panel

SRC = SRC (Homo sapiens, UniProt P12931); test: Kinase panel (Millipore); format: biochemical; conditions: 1 µM, ATP at Km
YES = YES (Homo sapiens, UniProt P07947); test: Kinase panel (Millipore); format: biochemical; conditions: 1 µM, ATP at Km
YES, sequence (P07947 whole entry): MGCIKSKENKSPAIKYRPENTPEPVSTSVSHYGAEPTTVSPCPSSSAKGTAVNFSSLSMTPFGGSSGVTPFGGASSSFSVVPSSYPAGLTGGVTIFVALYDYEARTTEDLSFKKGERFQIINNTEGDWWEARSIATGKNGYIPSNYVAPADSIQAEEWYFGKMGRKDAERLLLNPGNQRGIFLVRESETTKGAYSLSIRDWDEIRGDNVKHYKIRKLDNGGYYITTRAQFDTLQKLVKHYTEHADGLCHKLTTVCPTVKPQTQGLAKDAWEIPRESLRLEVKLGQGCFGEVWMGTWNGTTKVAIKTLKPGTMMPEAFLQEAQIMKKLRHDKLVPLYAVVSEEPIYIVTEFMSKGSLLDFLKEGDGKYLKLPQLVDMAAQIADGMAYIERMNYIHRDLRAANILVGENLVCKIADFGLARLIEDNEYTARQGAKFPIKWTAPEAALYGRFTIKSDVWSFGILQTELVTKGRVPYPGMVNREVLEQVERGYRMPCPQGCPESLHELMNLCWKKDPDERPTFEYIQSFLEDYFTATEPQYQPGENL

CK1GAMMA3 = CK1GAMMA3 (Homo sapiens, UniProt Q9Y6M4); test: Kinase panel (Millipore); format: biochemical; conditions: 1 µM, ATP at Km
CK1GAMMA3, sequence (Q9Y6M4 whole entry): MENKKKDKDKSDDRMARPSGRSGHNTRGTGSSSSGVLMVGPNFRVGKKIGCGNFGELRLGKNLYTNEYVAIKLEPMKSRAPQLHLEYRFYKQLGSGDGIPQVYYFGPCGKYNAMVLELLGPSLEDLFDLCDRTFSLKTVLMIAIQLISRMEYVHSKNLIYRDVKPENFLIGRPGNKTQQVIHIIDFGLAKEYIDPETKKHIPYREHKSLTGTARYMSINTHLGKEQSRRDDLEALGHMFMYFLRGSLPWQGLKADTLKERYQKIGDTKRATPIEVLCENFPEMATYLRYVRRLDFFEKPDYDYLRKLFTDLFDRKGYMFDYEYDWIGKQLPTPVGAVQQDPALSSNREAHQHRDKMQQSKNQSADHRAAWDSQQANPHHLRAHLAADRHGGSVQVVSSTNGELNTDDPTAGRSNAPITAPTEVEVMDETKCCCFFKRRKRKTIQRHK

CKIT(V654A) = CKIT(V654A) (Homo sapiens, UniProt P10721, V654A); conditions: 1 µM, ATP at Km
MAPK2 = MAPK2 (Homo sapiens, UniProt P28482); test: Kinase panel (Millipore); format: biochemical; conditions: 1 µM, ATP at Km
CDK1/CYCLINB = CDK1/CYCLINB (Homo sapiens, UniProt P06493); conditions: 1 µM, ATP at Km
FLT3(D835Y) = FLT3(D835Y) (Homo sapiens, UniProt P36888, D835Y); conditions: 1 µM, ATP at Km
RSK2 = RSK2 (Homo sapiens, UniProt P51812); test: Kinase panel (Millipore); format: biochemical; conditions: 1 µM, ATP at Km
JNK3 = JNK3 (Homo sapiens, UniProt P53779); test: Kinase panel (Millipore); format: biochemical; conditions: 1 µM, ATP at Km
CAMKIIDELTA = CAMKIIDELTA (Homo sapiens, UniProt Q13557); test: Kinase panel (Millipore); format: biochemical; conditions: 1 µM, ATP at Km
MCH1 (h) = target: T9, MCH1 (h) (Homo sapiens, UniProt Q99705); test: CEREP binding assay; conditions: agonist radioligand, read-out: % Inhibition of Control Specific Binding
T9 construct: purchased Millipore (KinaseProfiler) kinase panel

RON = target: T10, RON (Homo sapiens, UniProt Q04912); test: Kinase panel (Millipore); format: biochemical; conditions: 1 µM, ATP at Km
T10 construct: purchased Millipore (KinaseProfiler) kinase panel

SAPK2A(T106M) = SAPK2A(T106M) (Homo sapiens, UniProt Q16539, T106M); conditions: 1 µM, ATP at Km
SAPK2A(T106M), sequence (Q16539 whole entry T106M): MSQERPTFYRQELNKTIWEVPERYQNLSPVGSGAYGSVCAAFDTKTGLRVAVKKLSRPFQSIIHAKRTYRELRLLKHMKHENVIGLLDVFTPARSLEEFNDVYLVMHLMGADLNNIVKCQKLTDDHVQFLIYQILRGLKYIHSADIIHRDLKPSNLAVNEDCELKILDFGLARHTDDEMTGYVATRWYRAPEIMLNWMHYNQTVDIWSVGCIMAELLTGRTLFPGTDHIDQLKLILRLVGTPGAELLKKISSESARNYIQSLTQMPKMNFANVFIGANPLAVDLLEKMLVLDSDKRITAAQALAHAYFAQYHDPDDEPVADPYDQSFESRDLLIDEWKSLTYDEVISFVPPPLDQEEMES

LKB1 = target: T11, LKB1 (Homo sapiens, UniProt Q15831); test: Kinase panel (Millipore); format: biochemical; conditions: 1 µM, ATP at Km
T11 construct: purchased Millipore (KinaseProfiler) kinase panel

TAO1 = target: T12, TAO1 (Homo sapiens, UniProt Q7L7X3); test: Kinase panel (Millipore); format: biochemical; conditions: 1 µM, ATP at Km
T12 construct: purchased Millipore (KinaseProfiler) kinase panel

CLK3 = target: T13, CLK3 (Homo sapiens, UniProt P49761); test: Kinase panel (Millipore); format: biochemical; conditions: 1 µM, ATP at Km
T13 construct: purchased Millipore (KinaseProfiler) kinase panel

[4] = male, Wistar, rat, in vivo
PKCETA = target: T14, PKCETA (Homo sapiens, UniProt P24723); test: Kinase panel (Millipore); format: biochemical; conditions: 1 µM, ATP at Km
T14 construct: purchased Millipore (KinaseProfiler) kinase panel
T14 sequence (P24723 whole entry): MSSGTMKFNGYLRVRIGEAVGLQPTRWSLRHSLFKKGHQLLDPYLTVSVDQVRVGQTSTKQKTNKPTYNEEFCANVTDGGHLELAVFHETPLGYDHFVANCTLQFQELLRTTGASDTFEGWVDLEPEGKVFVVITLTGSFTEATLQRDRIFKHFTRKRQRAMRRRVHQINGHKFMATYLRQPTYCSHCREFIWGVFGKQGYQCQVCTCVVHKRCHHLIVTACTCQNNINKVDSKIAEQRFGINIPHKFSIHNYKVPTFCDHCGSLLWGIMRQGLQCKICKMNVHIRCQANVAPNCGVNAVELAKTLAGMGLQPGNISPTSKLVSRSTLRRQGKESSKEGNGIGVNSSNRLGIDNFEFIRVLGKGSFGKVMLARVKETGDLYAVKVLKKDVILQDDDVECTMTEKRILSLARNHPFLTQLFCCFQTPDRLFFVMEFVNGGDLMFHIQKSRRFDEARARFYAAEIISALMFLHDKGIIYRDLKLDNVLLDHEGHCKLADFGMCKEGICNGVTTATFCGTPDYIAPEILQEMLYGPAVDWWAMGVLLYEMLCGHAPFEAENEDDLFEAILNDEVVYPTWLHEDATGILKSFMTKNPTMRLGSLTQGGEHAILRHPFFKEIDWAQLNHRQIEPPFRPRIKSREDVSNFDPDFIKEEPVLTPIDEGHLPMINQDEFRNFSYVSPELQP

FGFR3 = target: T15, FGFR3 (Homo sapiens, UniProt P22607); test: Kinase panel (Millipore); format: biochemical; conditions: 1 µM, ATP at Km
T15 construct: purchased Millipore (KinaseProfiler) kinase panel

LOK = target: T16, LOK (Homo sapiens, UniProt O94804); test: Kinase panel (Millipore); format: biochemical; conditions: 1 µM, ATP at Km
T16 construct: purchased Millipore (KinaseProfiler) kinase panel

EPHA1 = target: T17, EPHA1 (Homo sapiens, UniProt P21709); test: Kinase panel (Millipore); format: biochemical; conditions: 1 µM, ATP at Km
T17 construct: purchased Millipore (KinaseProfiler) kinase panel

Cn1ncc2cc(-c3cnc(N)c(Cl)c3N3CCC4(CCNC4=O)CC3)ccc21 [Compound 109, 8-(2-Amino-3-chloro-5-(1-methyl-1H-indazol-5-yl)pyridin-4-yl)-2,8-diazaspiro[4.5]decan-1-one]
% effect (CDK9/CYCLINT1): -8%
% effect (NEK6): 4%
% effect (FGFR2(N549H)): 1%
% effect (FAK): 6%
% effect (SGK3): 13%
% Inhibition of Control Specific Binding [1]: 5%
% effect (IGF-1R, ACTIVATED): 1%
inhibition at 10 µM (M4 (h)): 22%
% effect (DDR2): 19%
% effect (P70S6K): -1%
% effect (PKBGAMMA): 7%
% effect (BMX): -6%
% effect (JAK3): 4%
inhibition at 10 µM (5-HT2C (h)): 6%
inhibition at 10 µM (alpha 1B (h)): 15%
duration of reduced STAT1 SER727 phosphorylation after the last dose [2]: more than 6 h
% effect (EPHA5): -9%
% effect (PKA): 25%
% effect (SAPK4): -1%
% effect (EGFR(T790M,L858R)): 0%
LBF [3]: 43%
% effect (AXL): -4%
% effect (SRC): 7%
% effect (YES): -2%
% effect (CK1GAMMA3): -7%
% effect (CKIT(V654A)): 9%
% effect (MAPK2): -6%
% effect (CDK1/CYCLINB): -12%
% effect (FLT3(D835Y)): 21%
% effect (RSK2): -11%
% effect (JNK3): -5%
% effect (CAMKIIDELTA): 7%
inhibition at 10 µM (MCH1 (h)): 34%
% effect (RON): -1%
% effect (SAPK2A(T106M)): 2%
% effect (LKB1): 5%
% effect (TAO1): 6%
% effect (CLK3): 4%
LBF [4]: 34%
% effect (PKCETA): 6%
% effect (FGFR3): -9%
% effect (LOK): 11%
% effect (EPHA1): 4%
